≈ marks a conversion by molar mass, not a printed value. Calls of active or inactive are those of the source. The rule behind the calls is not given here.

From ChEMBL document CHEMBL1137533, “Activity of 7-methyljuglone derivatives against Mycobacterium tuberculosis and as subversive substrates for mycothiol disulfide reductase” (Bioorg Med Chem, 2007) come the findings set out here.

The nature of test [1]: Selectivity index, ratio of IC50 for Vero cells to MIC of Mycobacterial tuberculosis H37Rv. Format: functional.
The subject of test [2] is Mycobacterium tuberculosis. The test can be described thus: Antimycobacterial activity against Mycobacterium tuberculosis H37Rv. Format: functional.
The next test has as its system Vero. The test is described as follows: Cytotoxicity against Vero cells after 48 hrs by XTT method. Format: cell-based. The following applies: Chlorocebus sabaeus. (In general: Tetrazolium assays rely on reduction of a dye to a coloured formazan, in cell work by metabolically active cells.)
Test [3] concerns Mycobacterium tuberculosis. The test can be described thus: Ratio of kcat to Km of Mycobacterium tuberculosis mycothiol reductase. The arrangement: unit not given here.
The test system of test [4] is Mycobacterium tuberculosis. The test is described as follows: Antimycobacterial activity against Mycobacterium tuberculosis H37Rv at MIC. Format: functional.
The test system of test [5] is Mycobacterium tuberculosis. The test is described as follows: Activity of Mycobacterium tuberculosis mycothiol reductase.
The test system of test [6] is Mycobacterium tuberculosis. The test is described as follows: Activity of Mycobacterium tuberculosis mycothiol reductase upto 800 uM.

By MIC is commonly meant the lowest concentration found to suppress growth. For orientation: IC50 means the midpoint of a concentration-inhibition curve. Take `Cc1ccc2c(c1O)C(=O)C=CC2=O`: in test [1], the Ratio amounted to 0.63. Also, the minimum inhibitory concentration (MIC) in test [2] turned out to be 5 µg/mL (≈ 26.6 µM). In the test with Vero, this compound showed an IC50 of 3.1 µg/mL (≈ 16.5 µM).

For orientation: Km means the substrate concentration at which the rate is half of its maximum. In general, kcat refers to the maximal rate divided by the concentration of active sites. With `CC(=O)Oc1cc(C)cc2c1C(=O)C=CC2=O`, the Ratio in test [1] was 2.4. The compound further came in with an MIC in test [2] of 2.5 µg/mL (≈ 10.9 µM). For the same compound, in test [3], the kcat/Km came to 8.15e+07. The compound also gave an Activity in test [4] of 99.9%. Further, in test [5], the Michaelis constant (Km) is 389 µM and the kcat was found to be 3.17 s⁻¹. The compound also yielded an IC50 in the test with Vero of 6 µg/mL (≈ 26.1 µM).

As for `CC(=O)Oc1cc(C)c(Cl)c2c1C(=O)C=CC2=O`, in test [1], the Ratio stood at 0.63. This compound also gave a minimum inhibitory concentration (MIC) in test [2] of 10 µg/mL (≈ 37.8 µM). Also, the Activity in test [4] is listed as 99.9%. The same compound came in with an IC50 in the test on Vero of 6.3 µg/mL (≈ 23.8 µM).

On to `COc1cc(C)cc2c1C(=O)C=CC2=O`, for which the Ratio in test [1] turned out to be 0.39. In test [2], this compound had a minimal inhibitory concentration (MIC) of 15 µg/mL (≈ 74.2 µM). This compound had an Activity in test [4] of 99.9%. In the test on Vero, this compound yielded a half-maximal inhibitory concentration (IC50) of 5.8 µg/mL (≈ 28.7 µM).

Consider `CC(=O)Oc1cc(OC(C)=O)c2c(OC(C)=O)c(C)cc(Cl)c2c1OC(C)=O`, for which, in test [2], the minimum inhibitory concentration (MIC) was > 20 µg/mL. In addition, the Activity in test [4] stood at 99.9%. For the same compound, the IC50 in the test with Vero worked out at 149 µg/mL (≈ 365 µM).

Turning to `COc1cc(C)c(Cl)c2c1C(=O)C=CC2=O`, the MIC in test [2] is > 20 µg/mL. Further, the kcat/Km in test [3] was 3.3e+06. In addition, in test [4], the Activity was 99.9%. In test [5], the Km was determined as 435 µM and the kcat was 0.142 s⁻¹. Also, half-maximal inhibition with Vero (IC50) was put at 7.7 µg/mL (≈ 32.5 µM).

`CCOc1c(C)cc(Cl)c2c1C(=O)C=CC2=O`: the Ratio in test [1] came to 0.83. In addition, it took 15 µg/mL (≈ 59.8 µM) to inhibit growth in test [2] (MIC). The Activity in test [4] stood at 99.9%. Further, in the test on Vero, the 50% inhibitory concentration (IC50) worked out at 12.5 µg/mL (≈ 49.9 µM).

In the case of `CCOc1cc(C)cc2c1C(=O)C=CC2=O`, the Ratio in test [1] came out at 0.42. In test [2], this compound registered an MIC of 15 µg/mL (≈ 69.4 µM). Moreover, in test [4], the Activity worked out at 99.9%. For the same compound, the IC50 in the test with Vero is 6.3 µg/mL (≈ 29.1 µM).

On to `CCOc1cc(C)c(Cl)c2c1C(=O)C=CC2=O`, for which, in test [2], the minimum inhibitory concentration (MIC) is > 20 µg/mL. The Activity in test [4] is given as 99.9%. In the test on Vero, the midpoint of inhibition, the IC50, lay at 36.1 µg/mL (≈ 144 µM).

Turning to `CC(=O)Oc1cc(OC(C)=O)c2c(OC(C)=O)cc(C)cc2c1OC(C)=O`, the minimal inhibitory concentration (MIC) in test [2] is > 20 µg/mL. Further, the Activity in test [4] came to 99.9%. This compound came in with an IC50 with Vero of 17.2 µg/mL (≈ 45.9 µM).

On to `COc1c(C)cc(Cl)c2c1C(=O)C=CC2=O`, for which the Ratio in test [1] was determined as 0.54. The compound further showed an MIC in test [2] of 15 µg/mL (≈ 63.4 µM). Besides, in test [4], the Activity turned out to be 99.9%. The compound further came in with an IC50 in the test with Vero of 8 µg/mL (≈ 33.8 µM).

As for `CC(=O)Oc1cc(OC(C)=O)c2c(OC(C)=O)cc(C)c(Cl)c2c1OC(C)=O`, the MIC in test [2] was > 20 µg/mL. This compound also gave an Activity in test [4] of 99.9%. The compound also displayed a concentration for half-maximal inhibition (IC50) with Vero of 27.8 µg/mL (≈ 68 µM).

For the compound `CC(=O)Oc1c(C)cc(Cl)c2c1C(=O)C=CC2=O`, the Ratio in test [1] worked out at 2.1. The compound further gave an MIC in test [2] of 10 µg/mL (≈ 37.8 µM). This compound had an Activity in test [4] of 99.9%. Besides, inhibition in the test with Vero was half-maximal at 21.1 µg/mL (≈ 79.7 µM) (IC50).

As for `Cc1cc(O)c2c(c1)C(=O)C(O)=CC2=O`, the Ratio in test [1] came out at 0.63. The same compound displayed a minimal inhibitory concentration (MIC) in test [2] of 5 µg/mL (≈ 24.5 µM). This compound returned an Activity in test [4] of 99.9%. In the test with Vero, this compound displayed an IC50 of 3.1 µg/mL (≈ 15.2 µM).

Take `Cc1cc(O)c2c(c1Br)C(=O)C=CC2=O` [5-BROMO-8-HYDROXY-6-METHYLNAPHTHALENE-1,4-DIONE]: in test [1], the Ratio is 0.71. This compound returned a minimum inhibitory concentration (MIC) in test [2] of 5 µg/mL (≈ 18.7 µM). In addition, the IC50 with Vero turned out to be 3.6 µg/mL (≈ 13.5 µM).

Turning to `Cc1cc(O)c2c(c1Cl)C(=O)C=CC2=O` [5-CHLORO-8-HYDROXY-6-METHYLNAPHTHALENE-1,4-DIONE], the Ratio in test [1] stood at 0.25. The compound further returned an MIC in test [2] of 10 µg/mL (≈ 44.9 µM). The kcat/Km in test [3] was 9.1e+06. Besides, in test [5], the Michaelis constant (Km) stood at 233 µM and the kcat turned out to be 0.212 s⁻¹. This compound displayed a concentration for half-maximal inhibition (IC50) in the test on Vero of 2.5 µg/mL (≈ 11.2 µM).

As for `Cc1cc(O)c2c(c1F)C(=O)C=CC2=O` [5-FLUORO-8-HYDROXY-6-METHYLNAPHTHALENE-1,4-DIONE], in test [1], the Ratio was 0.76. Also, in test [2], inhibition of growth (MIC) required 10 µg/mL (≈ 48.5 µM). Also, 7.6 µg/mL (≈ 36.9 µM) corresponded to half-maximal inhibition in the test on Vero (IC50).

On to `Cc1cc(Cl)c2c(c1O)C(=O)C=CC2=O` [8-CHLORO-5-HYDROXY-6-METHYLNAPHTHALENE-1,4-DIONE], for which the Ratio in test [1] was 0.92. Besides, it took 5 µg/mL (≈ 22.5 µM) to inhibit growth in test [2] (MIC). The kcat/Km in test [3] is 1.64e+08. The same compound yielded an Activity in test [4] of 99.9%. In test [5], the Michaelis constant (Km) turned out to be 36 µM and the turnover number (kcat) was 0.592 s⁻¹. The 50% inhibitory concentration (IC50) in the test with Vero was 4.6 µg/mL (≈ 20.7 µM).

`Cc1cc(O)c2c(c1)C(=O)C(c1c(C)cc3c(c1O)C(=O)C=CC3=O)=CC2=O` [DIOSPYRIN]: the Ratio in test [1] was found to be 2.2. In test [2], this compound registered an MIC of 8 µg/mL (≈ 21.4 µM). The kcat/Km in test [3] came to 3.57e+07. Besides, in test [5], the Km came out at 33 µM and the turnover number (kcat) was 0.118 s⁻¹. Besides, the IC50 in the test on Vero was 17.8 µg/mL (≈ 47.5 µM).

`CC[C@@H](CO)NCCN[C@@H](CC)CO` [ETHAMBUTOL]: the Ratio in test [1] was >75. In test [2], this compound yielded an MIC of 2 µg/mL (≈ 9.79 µM). Further, in test [4], the Activity is 99.9%. Moreover, the IC50 with Vero is > 150 µg/mL.

With `NNC(=O)c1ccncc1` [ISONIAZID], in test [1], the Ratio was >1000. For the same compound, in test [2], 0.2 µg/mL (≈ 1.46 µM) was the least that counted as inhibitory (MIC). Moreover, the Activity in test [4] came to 99.9%. Moreover, the IC50 in the test on Vero was > 200 µg/mL.

Turning to `CC1=CC(=O)c2ccccc2C1=O` [MENADIONE], the Ratio in test [1] turned out to be 1.3. Further, the MIC in test [2] turned out to be 5 µg/mL (≈ 29 µM). Further, the kcat/Km in test [3] is 1.52e+07. Also, the Activity in test [4] is reported as 99.9%. Besides, in test [5], the Michaelis constant (Km) was 483 µM and the kcat is 0.732 s⁻¹. This compound came in with an IC50 in the test on Vero of 6.5 µg/mL (≈ 37.8 µM).

As to `O=C1C=CC(=O)c2ccccc21` [NAPHTHOQUINONE], in test [1], the Ratio stood at 1.19. Besides, inhibition of growth in test [2] (MIC) required 1 µg/mL (≈ 6.32 µM). The kcat/Km in test [3] is 3.36e+07. The Activity in test [4] was determined as 99.9%. For the same compound, in test [5], the Michaelis constant (Km) is 324 µM and the catalytic constant (kcat) is 1.09 s⁻¹. 1.2 µg/mL (≈ 7.59 µM) corresponded to half-maximal inhibition in the test with Vero (IC50).

Regarding `Cc1cc(O)c2c(c1)C(=O)C=C(c1c(C)cc(O)c3c1C(=O)C=CC3=O)C2=O` [NEODIOSPYRIN], the Ratio in test [1] was determined as 3.2. For the same compound, it took 10 µg/mL (≈ 26.7 µM) to inhibit growth in test [2] (MIC). Further, in test [3], the kcat/Km came out at 4.88e+07. Besides, in test [5], the Michaelis-Menten constant (Km) came to 63 µM and the kcat was determined as 0.308 s⁻¹. For the same compound, in the test on Vero, the IC50 came out at 32 µg/mL (≈ 85.5 µM).

As to `Cc1cc(O)c2c(c1)C(=O)C=CC2=O` [RAMENTACEONE], the Ratio in test [1] was determined as 30.22. This compound also yielded an MIC in test [2] of 0.5 µg/mL (≈ 2.66 µM). Further, the kcat/Km in test [3] is 9.31e+07. Further, in test [5], the Km came to 254 µM and the kcat was determined as 2.37 s⁻¹. This compound also yielded a concentration for half-maximal inhibition (IC50) in the test on Vero of 15.1 µg/mL (≈ 80.2 µM).

As to `Cc1cc(O)c2c(c1)[C@H](O)CCC2=O` [SHINANOLONE], the minimum inhibitory concentration (MIC) in test [2] is > 100 µg/mL. The same compound registered an Activity in test [4] of 99.9%. Moreover, the result in test [6] was inactive.

Regarding `CN[C@@H]1[C@H](O[C@H]2[C@H](O[C@H]3[C@H](O)[C@@H](O)[C@H](N=C(N)N)[C@@H](O)[C@@H]3N=C(N)N)O[C@@H](C)[C@]2(O)C=O)O[C@@H](CO)[C@H](O)[C@H]1O` [STREPTOMYCIN], the Ratio in test [1] is given as >120. This compound also had an MIC in test [2] of 1 µg/mL (≈ 1.72 µM). Further, in test [4], the Activity came out at 99.9%. Besides, the IC50 in the test with Vero was > 120 µg/mL.
